Results on six molecules are retold here after patent publication US20040009534A1, “Protein analysis” (DYAX CORPORATION, priority 2002, published 2004).

One data set concerns Fc protein. The settings on record: from buffer solution and tobacco extract; cited from earlier work.
The next data set has as its target human IgG1. The settings on record: read-out: dissociation constants (KD), cited from earlier work.
Data set [1] concerns the target T1, HSA (Homo sapiens, UniProt P02768).
T1 construct: SwissProt entry: P02768 and/or the following mature
In words: Dissociation constants (KD) against a panel of albumins. The class given is binding. As to conditions: phosphate, pH 6.2, O M NaCl. From the text: (§1) The binding properties of a ligand that binds a serum protein can be readily assessed using various assay formats. For example, the binding property of a ligand can be measured in solution by fluorescence anisotropy, which provides a convenient and accurate method of determining a dissociation constant (KD) of a binding moiety for a serum albumin from one or more different species. In one such procedure, a binding moiety described herein is labeled with fluorescein. The fluorescein-labeled binding moiety may then be mixed in wells of a multi-well assay plate with various concentrations of a particular species of serum albumin. Fluorescence anisotropy measurements are then carried out using a fluorescence polarization plate reader. The binding interaction between a serum protein and a non-covalently associated compound can be similarly characterized. Other solution measures for studying binding properties include fluorescence resonance energy transfer (FRET) and NMR.

Another data set addresses Goat albumin. The description is as above. The class given is binding.
Text: as §1

Data set [2] deals with murine serum albumin (MSA) (Mus musculus, UniProt P07724). The data set is described as above. The class given is binding.
Text: as §1

The target in data set [3] is T1, HSA. Briefly: HSA binding test of analytical peptide-Sepharose affinity columns. As to conditions: 1 mg HSA injection; for Total Capacity: 0.35 ml column. As to the method: The immobilization reaction was initiated by the addition of diisopropylethylamine to 2% (vol/vol). After 4 hours of slow mixing on a shaker table at room temperature, the reaction was quenched by the addition of an equal volume of 0.5 M hydroxylamine, pH 8, in water. For those peptides with ivDde-protected internal lysines, the hydroxylamine quench treatment also removed the ivDde-protecting group. To allow for complete protecting group removal, the quenched reaction was allowed to incubate overnight at room temperature. Once quenched and deprotected, the immobilized peptide-Sepharose resin was washed at least 3 times with water to remove solvent and unbound peptide. Non-specifically bound peptide was eluted off the resin by washing the resin at least three times in 30 mM phosphoric acid, pH 2. Since the NHS-Sepharose resin surface becomes negatively charged after hydrolysis, an acidic wash neutralizes the surface and removes any peptides bound non-covalently to the surface via electrostatic interactions. After washing, the resin was resuspended in water as a 50% v/v mixture. A 50 μl aliquot was used to determine the ligand density on the resin by quantitative amino acid analysis. Finally, the resin slurry was packed into 0.35 ml OMNIFIT™ glass columns (3 mm×50 mm) for analytical testing.
Each peptide was immobilized at high density on NHS-Sepharose resin using the procedure outlined above. The peptides were immobilized via a C-terminal lysine. […] Each column was tested for HSA binding (1 mg injection) in binding buffer—3 mM sodium phosphate, 0.1% Tween-20 detergent, pH 6.2.
One milliliter of albumin solution was passed through each column (0.35 ml) previously equilibrated in equilibration buffer. The columns were washed with the same equilibration buffer and then eluted with 100 mM Tris, pH 9.1 (flow rate, 0.5 ml/min for all steps). The column chromatography was carried out using a BIO-RAD BIOLOGIC™ monitoring system (Hercules, Calif.) throughout this testing with absorbance monitoring at 280 nm.

For a further data set, the target named is T2, chicken ovalbumin (Gallus gallus, UniProt P01012).
T2 sequence (P01012 1-386): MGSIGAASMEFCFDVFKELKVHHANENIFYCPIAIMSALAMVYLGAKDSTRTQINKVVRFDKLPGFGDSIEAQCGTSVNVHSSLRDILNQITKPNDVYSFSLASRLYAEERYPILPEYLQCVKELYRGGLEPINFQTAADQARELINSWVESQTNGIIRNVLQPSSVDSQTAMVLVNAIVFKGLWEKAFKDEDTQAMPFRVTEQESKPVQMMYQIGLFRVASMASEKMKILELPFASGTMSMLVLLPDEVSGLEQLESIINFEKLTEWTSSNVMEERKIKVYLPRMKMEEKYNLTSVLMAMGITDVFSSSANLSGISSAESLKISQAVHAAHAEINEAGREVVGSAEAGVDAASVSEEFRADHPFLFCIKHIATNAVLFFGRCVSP
In words: Dissociation constants (KD) against a panel of albumins, negative control. It is filed as binding. The settings on record: both sets of buffers.
Text: as §1
Chicken ovalbumin is not homologous to HSA as determined by sequence alignment analysis.

A further data set addresses human IgG3. The settings on record: human IgG3, pH 5.7; read-out: dissociation constants (KD); cited from earlier work.
Setting [4] is: fraction: Elution (100 mM Tris, pH 9.1).

pKd: −log10 of the molar value. Read-outs that look alike come from different tables or passages of the source.

Chain of human IgG1 (P01857 1-330 isoform P01857-1): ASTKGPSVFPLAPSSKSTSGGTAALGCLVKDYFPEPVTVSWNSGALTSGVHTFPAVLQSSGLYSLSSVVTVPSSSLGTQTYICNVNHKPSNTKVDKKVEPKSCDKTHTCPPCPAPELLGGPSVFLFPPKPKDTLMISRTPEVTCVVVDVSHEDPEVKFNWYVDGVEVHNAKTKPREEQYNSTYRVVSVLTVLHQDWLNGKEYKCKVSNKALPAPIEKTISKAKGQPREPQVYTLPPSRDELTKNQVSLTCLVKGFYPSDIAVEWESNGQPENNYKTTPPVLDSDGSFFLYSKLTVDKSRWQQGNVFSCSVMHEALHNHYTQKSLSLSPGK
T1 sequence (P02768 25-609): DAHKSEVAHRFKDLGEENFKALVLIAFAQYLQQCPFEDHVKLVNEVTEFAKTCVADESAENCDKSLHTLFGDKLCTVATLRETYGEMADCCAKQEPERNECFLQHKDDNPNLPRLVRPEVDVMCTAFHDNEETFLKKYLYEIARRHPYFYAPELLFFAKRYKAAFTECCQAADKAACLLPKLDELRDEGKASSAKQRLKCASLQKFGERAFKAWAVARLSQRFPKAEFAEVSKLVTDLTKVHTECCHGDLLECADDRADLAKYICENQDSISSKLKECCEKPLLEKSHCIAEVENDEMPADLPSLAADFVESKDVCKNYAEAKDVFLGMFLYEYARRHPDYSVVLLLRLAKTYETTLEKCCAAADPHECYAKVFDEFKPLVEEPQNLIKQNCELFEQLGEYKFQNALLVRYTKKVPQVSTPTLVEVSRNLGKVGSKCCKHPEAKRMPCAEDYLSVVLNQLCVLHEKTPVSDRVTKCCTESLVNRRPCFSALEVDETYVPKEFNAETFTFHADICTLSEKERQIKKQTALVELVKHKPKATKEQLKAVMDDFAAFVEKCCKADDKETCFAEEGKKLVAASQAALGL
Chain of murine serum albumin (MSA) (P07724 25-608): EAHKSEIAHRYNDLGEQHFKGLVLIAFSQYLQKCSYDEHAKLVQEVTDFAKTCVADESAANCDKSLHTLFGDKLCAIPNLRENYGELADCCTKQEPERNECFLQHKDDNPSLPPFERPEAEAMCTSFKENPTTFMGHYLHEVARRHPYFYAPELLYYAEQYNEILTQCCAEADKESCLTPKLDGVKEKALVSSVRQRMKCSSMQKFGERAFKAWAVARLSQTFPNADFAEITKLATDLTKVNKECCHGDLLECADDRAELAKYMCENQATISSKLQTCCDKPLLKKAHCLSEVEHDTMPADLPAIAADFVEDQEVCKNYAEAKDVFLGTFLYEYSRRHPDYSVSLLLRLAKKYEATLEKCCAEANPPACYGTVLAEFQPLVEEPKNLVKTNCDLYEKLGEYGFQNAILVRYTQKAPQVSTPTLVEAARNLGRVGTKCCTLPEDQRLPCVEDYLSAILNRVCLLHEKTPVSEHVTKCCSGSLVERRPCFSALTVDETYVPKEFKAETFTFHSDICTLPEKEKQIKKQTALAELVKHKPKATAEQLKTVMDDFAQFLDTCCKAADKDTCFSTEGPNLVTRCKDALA
Chain of human IgG3 (P01860 1-377 isoform P01860-1): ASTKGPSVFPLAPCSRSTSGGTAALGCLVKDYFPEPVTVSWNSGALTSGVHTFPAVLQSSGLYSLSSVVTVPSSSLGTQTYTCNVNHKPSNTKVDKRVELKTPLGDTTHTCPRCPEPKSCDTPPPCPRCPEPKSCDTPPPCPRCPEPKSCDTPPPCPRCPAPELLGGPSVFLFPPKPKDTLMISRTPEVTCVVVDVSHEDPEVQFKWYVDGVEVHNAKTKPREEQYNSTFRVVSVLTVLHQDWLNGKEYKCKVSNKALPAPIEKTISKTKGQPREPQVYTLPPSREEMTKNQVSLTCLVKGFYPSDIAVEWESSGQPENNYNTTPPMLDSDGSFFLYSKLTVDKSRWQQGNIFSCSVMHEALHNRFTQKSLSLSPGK

As for GDRRACSRDWSGALVWCAGHEPGPEGGGK [DX253], in the data set on Fc protein, the “capture efficiency (quantitative binding of Fc protein)” value was > 90 % of total load.
Turning to GDDHMCVYTTWGELIWCDNHEPGPEGGGK [DX249], the pKd on human IgG1 (IgG1, pH 7.4) is greater than 6.30; at human IgG1 (human IgG1, pH 5.7), greater than 7.00.
Consider AGYYWCNYWGLCPDQGTPGPEGGGK [DX254], for which the pKd on human IgG1 (IgG1, pH 7.4) is greater than 5.70; at human IgG1 (human IgG1, pH 5.7), greater than 7.00; on human IgG1 (human IgG1, pH 9.3), greater than 6.00.
Regarding `CC[C@H](C)[C@@H]1NC(=O)[C@H](Cc2c[nH]c3ccccc23)NC(=O)[C@H](CO)NC(=O)[C@H](Cc2ccccc2)NC(=O)[C@H](CCCCN)NC(=O)[C@@H](NC(=O)[C@H](CCSC)NC(=O)[C@H](CC(N)=O)NC(=O)[C@H](CCCNC(=N)N)NC(=O)[C@H](CC(=O)O)NC(=O)CNC(=O)[C@@H](NC(=O)CNC(=O)[C@H](CCC(=O)O)NC(=O)[C@H](C)NC(C)=O)[C@@H](C)O)CSSC[C@@H](C(=O)N[C@@H](C)C(=O)N[C@@H](CCCNC(=N)N)C(=O)N[C@@H](C)C(=O)N[C@@H](CC(=O)O)C(=O)N2CCC[C@H]2C(=O)N[C@@H](CCC(=O)O)C(=O)NCCCCCC(=O)N[C@@H](CCCCN)C(N)=O)NC(=O)[C@H](Cc2ccccc2)NC(=O)[C@H](C)NC(=O)[C@@H]2CCCN2C(=O)[C@H](CO)NC(=O)[C@H](CCCNC(=N)N)NC1=O` [DX-321], the KD entry at HSA [1] is listed as “submicromolar”. Moreover, the pKd at Goat albumin (PBS, pH 7.4, […] NaCl) was 4.08; on Goat albumin (phosphate, pH 6.2, O M NaCl), 4.02; in data set [2] (PBS, pH 7.4, 0.14 M NaCl), less than 3.70; in data set [2] (phosphate, pH 6.2, O M NaCl), less than 3.70. In addition, the “Total Capacity” value on HSA [3] is greater than 1.1 mg/mL. Also, the “μg HSA” value is 370 µg on HSA [3] (setting [4]) and 554 µg at HSA [3] (fraction: Flow through, pH 6.2). Also, the “binding to chicken ovalbumin” value at chicken ovalbumin is on record as “neither peptide showed any significant binding”.
Take `CC[C@H](C)[C@@H]1NC(=O)[C@H](CCCNC(=N)N)NC(=O)[C@H](CC(=O)O)NC(=O)[C@@H](NC(=O)[C@H](Cc2ccccc2)NC(=O)[C@H](Cc2c[nH]c3ccccc23)NC(=O)[C@H](Cc2ccccc2)NC(=O)[C@H](CC(=O)O)NC(=O)CNC(=O)[C@@H](NC(=O)CNC(=O)[C@H](CCC(=O)O)NC(=O)[C@H](C)NC(C)=O)[C@@H](C)O)CSSC[C@@H](C(=O)N[C@@H](CCC(=O)O)C(=O)N[C@@H](Cc2ccccc2)C(=O)N[C@@H](CC(C)C)C(=O)N[C@@H](CC(=O)O)C(=O)N2CCC[C@H]2C(=O)N[C@@H](CCC(=O)O)C(=O)NCC(=O)NCC(=O)NCC(=O)N[C@@H](CCCCN)C(N)=O)NC(=O)[C@H](CC(C)C)NC(=O)[C@H](Cc2c[nH]cn2)NC(=O)[C@H](CCC(N)=O)NC(=O)[C@@H]2CCCN2C(=O)[C@H](Cc2ccc(O)cc2)NC(=O)[C@H](Cc2c[nH]c3ccccc23)NC(=O)[C@H](C)NC1=O` [DX-236]: the pKd at Goat albumin (PBS, pH 7.4, […] NaCl) was 4.64; on Goat albumin (phosphate, pH 6.2, O M NaCl), 5.80. Moreover, the “Total Capacity” value on HSA [3] is greater than 2.7 mg/mL. The “μg HSA” value at HSA [3] (setting [4]) was 947 µg; on HSA [3] (fraction: Flow through, pH 6.2), 0 µg. At chicken ovalbumin, the “binding to chicken ovalbumin” value was “neither peptide showed any significant binding”.
Consider GDDDHCYWFREWFNSECPHGEPGPEGGGK [DX252], for which, at human IgG3, the pKd was greater than 7.00.
